Data set [1] in a line: Plasma concentrations of tamoxifen and its metabolites by LC-MS/MS in breast cancer patients on adjuvant tamoxifen. The data set is classed as in vivo, human. As to conditions: for Plasma concentration (median + IQR): 81 Ethiopian breast cancer patients, tamoxifen 20 mg/day for at least three months; for MR E/NDM: listed as E. How it is done: This study was conducted at the radiotherapy center of Tikur Anbessa specialized hospital, Addis Ababa University, Addis Ababa, Ethiopia. A total of 81 female breast cancer patients who were on adjuvant tamoxifen were enrolled. These patients had completed a full course of chemotherapy and were on tamoxifen 20 mg/day for at least three months. None of the study participants were taking any known CYP2D6 enzyme inhibitor as co-medication. The study protocol was approved by the Institutional Review Board (IRB) of the College of Health Sciences, Addis Ababa University (AAU) (Ref No: 011/16/2016), the Armauer Hansen Research Institute Ethical Review Committee (AAERC) (Ref No: PO26/16) and the Ethiopian National Research Ethics Review Committee (NRERC) (Ref No: 3.10/235/2017). Signed informed consent was obtained from individual study participants prior to study enrolment. Patients’ demographic, clinical and tumor characteristics including age, menopausal status, performance status, weight, height, body mass index (BMI), histologic type of the tumor, degree of differentiation, tumor size, lymph node involvement, hormone receptor status and co-morbidity status were collected.
Blood samples were collected in EDTA tube, centrifuged at 2500 g for 10 minutes, and the separated plasma was stored at −80 °C until analysis. Tamoxifen (Tam) and its major metabolites N-desmethyltamoxifen (NDM), (Z)-4-hydroxytamoxifen (4-HT), and (Z)-endoxifen (E) were quantified in the TDM Laboratory, Department of Clinical Pharmacology, Karolinska Institutet (Stockholm, Sweden), by ultra-high-performance liquid chromatography (UHPLC) followed by electrospray tandem mass spectrometry (LC-MS/MS). Briefly, 400 µL internal standard solution (containing 2 ng/mL of Z/E-endoxifen-d5, and 4-OH-tamoxifen-d5, and 20 ng/mL of N-desmethyl-tamoxifen-d5, and tamoxifen-d5) was added to 200 µL of thawed plasma samples and mixed for 10 minutes in a micro plate shaker (Vx-2400 Multitube mixer, Troemner, Philadelphia, USA), followed by centrifugation at 3400 rpm at 4 °C for 10 min. The supernatant was then transferred to new glass vial and evaporated to dryness using vacuum centrifuge. The residue was dissolved in 50 µL methanol over a microplate shaker for 10 min and the resulting solution was then centrifuged at 3400 rpm for 10 min at 4 °C. Ten microliter (10 µL) of the solution was injected into the LC system (Dionex Ultimate 3000, UHPLC focused, Thermo Scientific, California, USA) coupled with a mass spectrometer (TSQ Quantiva, Thermo Scientific). Separation occurred on an Accucore C-18 column (150 × 2.1 mm, Thermo Scientific). The mobile phase for gradient elution consisted of solution A (10 mmol/L ammonium formate with 0.005% formic acid in water) and solution B (10 mmol/L ammonium formate with 0.005% formic acid in 99% methanol). The LC conditions were: column oven temperature of 40 °C, flow rate of 0.50 mL/min, autosampler temperature of 10 °C. Detection was in positive ion mode using electrospray ionization and monitored using Trace Finder software (Thermo Scientific). Under this condition, the retention times were 3.25, 3.26, 3.38, 4.03, and 4.11 min for E-endoxifen, Z-endoxifen, 4-OH-tamoxifen, N-desmethyltamoxifen, and tamoxifen, respectively. Calibration curves were constructed by plotting the ratio of the area of the compound and the internal standard against the standard analyte concentration. Three quality control (QC) samples involving, (i) low-level QC [QCL] (0.3 ng/mL of E and 4-HT and 3 ng/mL of NDM and Tam, (ii) mid-level QC [QCM] (8 ng/mL of E and 4-HT and 80 ng/mL of NDM and Tam), and (iii) high level QC [QCH] (80 ng/mL of E and 4-HT and 800 ng/mL of NDM and Tam) were also included at each run.
Descriptive statistics were computed to explore the demographic characteristics, clinical profiles, genotype frequencies of participants. Chi-square test was used to compare the observed and expected genotype frequency according to Hardy–Weinberg equilibrium. […]

Another data set deals with estrogen receptor (ER). Details: method as in PMID 21451508. The settings on record: endoxifen level 13 nM; cited from earlier work.
Details of data set [2]: method as in PMID 21430657. The settings on record: endoxifen concentration >5.97 ng/mL; cited from earlier work.
For data set [3] the following is noted: cited from earlier work.
[4] abbreviates: ABCB1 c.4036A>G (rs3842) wild type genotype.
[5] abbreviates: UGT2B15 c.1568A>C (rs4148269) wild type genotype.
Where [6] appears, read: carriers of the G allele for ABCB1 c.4036A>G (rs3842).

Each structure is given as a SMILES string. Read-outs that look alike come from different tables or passages of the source.

With `CC/C(=C(\c1ccc(O)cc1)c1ccc(OCCNC)cc1)c1ccccc1` [Z-Endoxifen, (Z)-endoxifen], the “Median endoxifen concentration relative to 4-HT” value in data set [1] (7.94 vs 3.04 ng/mL) amounted to 2.6 times. In addition, the “Plasma concentration (median + IQR)” value in data set [1] is 7.94 (4.68–13.75) ng/mL; in data set [1] (listed as endoxifen), 7.94 ng/mL. In addition, the “Metabolic ratio of endoxifen to 4-hydroxy-tamoxifen, MR E/4-HT (median + IQR)” value in data set [1] (81 patients, plasma) was 2.85 (2.10–3.73). For the same compound, the “Metabolic ratio of endoxifen to N-desmethyl-tamoxifen, MR E/NDM (median + IQR)” value in data set [1] (81 patients, plasma) is given as 0.038 (0.021–0.06). The “MR E/4-HT” value in data set [1] (setting [4]) is 3.02; in data set [1] (setting [6]), 2.52. Moreover, the “MR E/NDM” value is given as 0.041 in data set [1] (setting [4]) and 0.022 in data set [1] (setting [6]). Besides, the figures for the “Patients with low endoxifen concentration (<5.9 ng/mL) / patients in group” value in data set [1] (CYP2D6 IM/IM diplotype), in data set [1] (CYP2D6 IM/PM diplotype) and in data set [1] (CYP2D6 PM/PM diplotype) were 1/1, 3/3 and 1/1, respectively. Also, the “Proportion of patients with low endoxifen concentration (<5.9 ng/mL)” value was determined as 41.7% in data set [1] (CYP2D6 NM/IM diplotype (5/12)), 31.4% in data set [1] (CYP2D6 NM/NM diplotype (11/35)), 66.7% in data set [1] (CYP2D6 NM/PM diplotype (6/9)) and 35.8% in data set [1] (all 81 patients). Moreover, the “Median E/4-HT ratio” value was 2.06 in data set [1] (setting [5]) and 2.96 in data set [1] (carriers of C allele for UGT2B15 c.1568A>C (rs4148269)). Besides, the “Occupancy of the estrogen receptor (ER) in vitro” value in the data set with estrogen receptor (ER) is 90%. Further, the “Lower risk of additional breast cancer events” value in data set [2] is given as 30%. In addition, the “Proportion of PMs still able to generate therapeutic concentrations of endoxifen” value in data set [3] (CYP2D6 PMs, threshold 5.9 ng/mL) was 24%. Also, in data set [3] (CYP2D6 poor metabolizers), the “Proportion of CYP2D6 PMs below endoxifen level of 13 nM” value was 93%. Moreover, the “Endoxifen plasma concentration lower than without CYP2D6 inhibitors” value in data set [3] (IMs on CYP2D6 inhibitors vs IMs not on CYP2D6 inhibitors) was 38%; in data set [3] (NMs taking CYP2D6 inhibitors vs NMs not on CYP2D6 inhibitors), 58%. Moreover, the figures for the “Proportion of patients unable to attain therapeutic threshold for endoxifen” value in data set [3] (Sweden) and in data set [3] (U.S.) were 30% and 20%, respectively.
In the case of `CC/C(=C(\c1ccccc1)c1ccc(OCCNC)cc1)c1ccccc1` [N-Desmethyl-tamoxifen, N-desmethyltamoxifen], in data set [1], the “Plasma concentration (median + IQR)” value is recorded as 257 (185.5–343) ng/mL. For the same compound, the “Metabolic ratio of N-desmethyl-tamoxifen to tamoxifen, MR NDM/Tam (median + IQR)” value in data set [1] (human, in vivo) was 1.81 (1.51–2.26).
Take `CC/C(=C(\c1ccccc1)c1ccc(OCCN(C)C)cc1)c1ccccc1` [Tamoxifen]: the “Plasma concentration (median + IQR)” value in data set [1] was 138 (105–200.5) ng/mL. Besides, the figures for the Median plasma concentration in data set [1] (setting [5]) and in data set [1] (patients with at least one variant allele for UGT2B15 c.1568A>C (rs4148269)) were 173.8 ng/mL and 125.9 ng/mL, respectively. The “Plasma tamoxifen concentration of all included patients” value in data set [1] (the 81 patients included in the analysis) is given as greater than 150 nM.
Turning to `CC/C(=C(\c1ccc(O)cc1)c1ccc(OCCN(C)C)cc1)c1ccccc1` [4-Hydroxy-tamoxifen, 4-hydroxy-tamoxifen], the “Plasma concentration (median + IQR)” value was 3.04 (2.15–4.0) ng/mL in data set [1] and 3.04 ng/mL in data set [1] (listed as 4-HT). Further, in data set [1] (81 patients, plasma), the “Metabolic ratio of 4-Hydroxy-tamoxifen to tamoxifen, MR 4-HT/Tam (median + IQR)” value is on record as 0.022 (0.016–0.029).
